Measured values taken from the CheMixHub ionic liquid set.

Test: xn = mol fraction of the nth substance listed

CCCC[n+]1ccccc1.N#C[N-]C#N + CC1COC(=O)O1
101 kPa
Conditions | electrical conductivity [S/m] | viscosity [mPa·s]
288.15 K, x1 = 0.1003 | 0.537 | 4.857
293.15 K, x1 = 0.4997 | 1.69 | 14.49
298.15 K, x1 = 0.3005 | 1.76 | 6.995
298.15 K, x1 = 0.7011 | 2.05 | 19.85
298.15 K, x1 = 0.7885 | 2.28 | 24.95
303.15 K, x1 = 0.3005 | 1.98 | 6.097
303.15 K, x1 = 0.6002 | 2.338 | 13.28
308.15 K, x1 = 0.1003 | 1.38 | 3.024
308.15 K, x1 = 0.3005 | 2.227 | 5.372
308.15 K, x1 = 0.7011 | 2.55 | 14.09
313.15 K, x1 = 0.1003 | 1.6 | 2.75
313.15 K, x1 = 0.3005 | 2.49 | 4.766
318.15 K, x1 = 0.1003 | 1.77 | 2.498
318.15 K, x1 = 0.7011 | 3.09 | 10.47
323.15 K, x1 = 0.197 | 2.44 | 3.04
323.15 K, x1 = 0.3005 | 3.038 | 3.842
323.15 K, x1 = 0.7011 | 3.432 | 9.16
323.15 K, x1 = 0.7885 | 3.732 | 10.85
328.15 K, x1 = 0.6002 | 3.724 | 6.707
328.15 K, x1 = 1 | 3.2 | 12.59
333.15 K, x1 = 0.197 | 2.94 | 2.58
333.15 K, x1 = 0.3005 | 3.66 | 3.172
333.15 K, x1 = 0.7011 | 4.16 | 7.185
333.15 K, x1 = 1 | 3.49 | 11.08
338.15 K, x1 = 0.197 | 3.17 | 2.394
343.15 K, x1 = 0.7011 | 4.98 | 5.796
343.15 K, x1 = 0.9008 | 5.122 | 7.641
348.15 K, x1 = 0.3005 | 4.732 | 2.474
348.15 K, x1 = 0.7011 | 5.416 | 5.253
353.15 K, x1 = 0.4003 | 5.33 | 2.965

CCCCCCCCCCCC[N+](C)(C)C.[Br-] + CS(C)=O + O
298 K, 101 kPa
Conditions | electrical conductivity [S/m]
x2 = 0.05957, x1 = 0.0001378 | 0.0321
x2 = 0.09776, x1 = 0.001524 | 0.181

CCCCCCCCCCCCCCCC[n+]1ccccc1.[Cl-] + C[C@H](N)C(=O)O + O
308.15 K, 101 kPa
Conditions | electrical conductivity [S/m]
x2 = 0, x1 = 5.4e-07 | 0.000222
x2 = 0, x1 = 9e-07 | 0.00029
x2 = 0, x1 = 1.62e-06 | 0.0004
x2 = 0, x1 = 2.34e-06 | 0.000465
x2 = 0, x1 = 2.88e-06 | 0.000581
x2 = 0, x1 = 3.78e-06 | 0.000705
x2 = 0, x1 = 4.5e-06 | 0.000794
x2 = 0, x1 = 5.59e-06 | 0.000937
x2 = 0, x1 = 6.85e-06 | 0.00106
x2 = 0, x1 = 7.93e-06 | 0.001222
x2 = 0, x1 = 9.01e-06 | 0.001438
x2 = 0, x1 = 1.009e-05 | 0.00159
x2 = 0, x1 = 1.117e-05 | 0.001701
x2 = 0, x1 = 1.442e-05 | 0.00209
x2 = 0, x1 = 1.55e-05 | 0.00219
x2 = 0, x1 = 1.766e-05 | 0.00237
x2 = 0, x1 = 1.982e-05 | 0.00248
x2 = 0, x1 = 2.18e-05 | 0.00259
x2 = 0, x1 = 2.397e-05 | 0.00264
x2 = 0, x1 = 2.595e-05 | 0.00278
x2 = 0, x1 = 2.991e-05 | 0.00297
x2 = 0, x1 = 3.406e-05 | 0.00314
x2 = 0, x1 = 3.784e-05 | 0.00328
x2 = 0, x1 = 4.162e-05 | 0.00342
x2 = 0, x1 = 4.541e-05 | 0.00356
x2 = 0, x1 = 4.919e-05 | 0.00369
x2 = 0, x1 = 5.099e-05 | 0.00375
x2 = 0, x1 = 5.982e-05 | 0.00403
x2 = 0, x1 = 6.829e-05 | 0.00432
x2 = 0, x1 = 7.64e-05 | 0.00454
x2 = 0, x1 = 8.415e-05 | 0.00477
x2 = 0, x1 = 9.171e-05 | 0.00497
x2 = 0, x1 = 9.892e-05 | 0.00516
x2 = 0, x1 = 0.0001058 | 0.00533
x2 = 0, x1 = 0.0001124 | 0.0055
x2 = 0, x1 = 0.0001189 | 0.00565
x2 = 2.252e-05, x1 = 1.08e-06 | 0.000338
x2 = 2.252e-05, x1 = 2.34e-06 | 0.00063
x2 = 2.252e-05, x1 = 3.42e-06 | 0.000917
x2 = 2.252e-05, x1 = 4.69e-06 | 0.00119
x2 = 2.252e-05, x1 = 5.77e-06 | 0.00147
x2 = 2.252e-05, x1 = 6.85e-06 | 0.001711
x2 = 2.252e-05, x1 = 7.93e-06 | 0.001903
x2 = 2.252e-05, x1 = 9.19e-06 | 0.00208
x2 = 2.252e-05, x1 = 1.027e-05 | 0.00219
x2 = 2.252e-05, x1 = 1.135e-05 | 0.00241
x2 = 2.252e-05, x1 = 1.243e-05 | 0.00258
x2 = 2.252e-05, x1 = 1.352e-05 | 0.00273
x2 = 2.252e-05, x1 = 1.46e-05 | 0.00288
x2 = 2.252e-05, x1 = 1.568e-05 | 0.00298
x2 = 2.252e-05, x1 = 1.784e-05 | 0.00318
x2 = 2.252e-05, x1 = 2e-05 | 0.00331
x2 = 2.252e-05, x1 = 2.217e-05 | 0.00341
x2 = 2.252e-05, x1 = 2.433e-05 | 0.00351
x2 = 2.252e-05, x1 = 2.631e-05 | 0.00358
x2 = 2.252e-05, x1 = 3.046e-05 | 0.00382
x2 = 2.252e-05, x1 = 3.442e-05 | 0.00393
x2 = 2.252e-05, x1 = 3.838e-05 | 0.00411
x2 = 2.252e-05, x1 = 4.235e-05 | 0.00422
x2 = 2.252e-05, x1 = 4.613e-05 | 0.00439
x2 = 2.252e-05, x1 = 4.992e-05 | 0.00462
x2 = 2.252e-05, x1 = 5.172e-05 | 0.00468
x2 = 2.252e-05, x1 = 6.073e-05 | 0.00486
x2 = 2.252e-05, x1 = 6.938e-05 | 0.00502
x2 = 2.252e-05, x1 = 7.767e-05 | 0.00529
x2 = 2.252e-05, x1 = 8.542e-05 | 0.00541
x2 = 2.252e-05, x1 = 9.316e-05 | 0.00565
x2 = 2.252e-05, x1 = 0.0001004 | 0.00593
x2 = 2.252e-05, x1 = 0.0001074 | 0.00614
x2 = 2.252e-05, x1 = 0.0001142 | 0.00629
x2 = 2.252e-05, x1 = 0.0001207 | 0.00635
x2 = 0.0003926, x1 = 6.912e-05 | 0.0057
x2 = 0.0003926, x1 = 7.742e-05 | 0.00596
x2 = 0.0003927, x1 = 1.08e-06 | 0.000964
x2 = 0.0003927, x1 = 2.35e-06 | 0.00116
x2 = 0.0003927, x1 = 3.43e-06 | 0.00138
x2 = 0.0003927, x1 = 4.51e-06 | 0.001535
x2 = 0.0003927, x1 = 5.78e-06 | 0.00176
x2 = 0.0003927, x1 = 6.86e-06 | 0.001924
x2 = 0.0003927, x1 = 7.94e-06 | 0.00212
x2 = 0.0003927, x1 = 9.02e-06 | 0.00222
x2 = 0.0003927, x1 = 1.029e-05 | 0.0024
x2 = 0.0003927, x1 = 1.137e-05 | 0.00252
x2 = 0.0003927, x1 = 1.245e-05 | 0.00271
x2 = 0.0003927, x1 = 1.354e-05 | 0.00279
x2 = 0.0003927, x1 = 1.462e-05 | 0.00297
x2 = 0.0003927, x1 = 1.57e-05 | 0.00311
x2 = 0.0003927, x1 = 1.787e-05 | 0.0034
x2 = 0.0003927, x1 = 2.003e-05 | 0.0035
x2 = 0.0003927, x1 = 2.22e-05 | 0.00366
x2 = 0.0003927, x1 = 2.418e-05 | 0.00389
x2 = 0.0003927, x1 = 2.635e-05 | 0.00397
x2 = 0.0003927, x1 = 3.032e-05 | 0.00414
x2 = 0.0003927, x1 = 3.447e-05 | 0.00426
x2 = 0.0003927, x1 = 3.844e-05 | 0.00448
x2 = 0.0003927, x1 = 4.223e-05 | 0.00473
x2 = 0.0003927, x1 = 4.602e-05 | 0.00487
x2 = 0.0003927, x1 = 4.981e-05 | 0.00495
x2 = 0.0003927, x1 = 5.161e-05 | 0.00502
x2 = 0.0003927, x1 = 6.064e-05 | 0.00532

OCCN(CCO)CCO + CC[n+]1ccn(C)c1.O=S(=O)([O-])C(F)(F)F
100 kPa
Conditions | electrical conductivity [S/m] | viscosity [mPa·s]
293.15 K, x1 = 0.084 | – | 52.9
298.15 K, x1 = 0.426 | 0.357 | 65.6
298.15 K, x1 = 0.539 | 0.232 | 87.6
298.15 K, x1 = 0.875 | 0.019 | 320
298.15 K, x1 = 0.969 | 0.00321 | –
298.15 K, x2 = 0.003 | 0.000411 | –
298.15 K, x2 = 0.006 | 0.00071 | –
298.15 K, x2 = 0.017 | 0.00188 | –
303.15 K, x1 = 0.084 | – | 36.1
303.15 K, x1 = 0.167 | – | 37
303.15 K, x1 = 0.641 | – | 87.1
303.15 K, x2 = 0.006 | – | 400
313.15 K, x1 = 0.167 | 1.19 | 26
313.15 K, x1 = 0.723 | 0.185 | 65.8
313.15 K, x2 = 0.003 | 0.00117 | –
313.15 K, x2 = 0.006 | 0.00204 | 198.3

CCC(=O)[O-].CC[NH+]1CCNCC1 + CCCO
101 kPa
Conditions | viscosity [mPa·s]
298.15 K, x2 = 0.4017 | 47.45
308.15 K, x2 = 0.3041 | 39.45

CCCC[P+](c1ccccc1)(c1ccccc1)c1ccccc1.[Br-] + O=S=O + OCCO
100 kPa
Conditions | viscosity [mPa·s]
303.15 K, x2 = 0.01371, x3 = 0.9622 | 22
313.15 K, x2 = 0.01059, x3 = 0.9653 | 18.4
323.15 K, x2 = 0.008625, x3 = 0.9672 | 15.5
333.15 K, x2 = 0.007346, x3 = 0.9684 | 12.9
343.15 K, x2 = 0.005964, x3 = 0.9698 | 11.5
